Test results reported in US9789116B2, “Compositions and methods of modulating short-chain dehydrogenase activity” (CASE WESTERN RESERVE UNIVERSITY, priority 2013, dated 2017).

Key:
15-PGDH mRNA = 15-PGDH mRNA levels in colon cancer cell lines by real-time PCR; type: cell-based
Text: In these studies parental cell lines (not containing the 15-PGDH-luciferase reporter) are employed.

FVB mice = experiment: Liver regeneration after partial hepatectomy, FVB mice; type: in vivo, mouse
[1] = test system: mice irradiated with 11Gy; experiment: Survival of mice following bone marrow transplant (Example 11); type: in vivo, mouse
Text: A matched control cohort received injections with vehicle only. On day one mice received an infusion of donor marrow at doses of 100,000 cells; 200,000 cells; or 500,000 cells. […] Among mice receiving 200,000 donor cells, all control mice were dead by day 12.

[2] = test system: lethally irradiated CD45.1 mice; experiment: Competitive bone marrow transplant, CD45.2 chimerism; type: in vivo, mouse
Method: On day 3 mice were sacrificed, marrow flushed and mixed at a 1:1 ratio with vehicle treated CD45.1 marrow. 2 million whole BM cells were injected into the tail vein of lethally irradiated CD45.1 mice and percent chimerism measured via flow cytometry at weeks 8, 12, 16.

C57BL/6J mice = experiment: Bone marrow of C57BL/6J mice treated in vivo; set-up: species or system mouse; settings: IP 5 mg/kg or 20 mg/kg
Text: Experimental conditions are noted on the figure.

C57BL/6J female mice = experiment: Survival after whole body irradiation; type: in vivo, mouse; settings: for Number of mice surviving: cohort of 3

Compound: CCCC[S+]([O-])c1sc2nc(-c3cccs3)cc(-c3ccccc3)c2c1N (centres unmarked) [SW033291, 2-(butylsulfinyl)-4-phenyl-6-(thiophen-2-yl)thieno[2,3-b]pyridin-3-amine]
- 15-PGDH mRNA levels (15-PGDH mRNA; V503 cells): slight increase in 15-PGDH mRNA
- 15-PGDH mRNA levels (15-PGDH mRNA; treated colon cancer cell lines, real-time PCR): do not in general alter 15-PGDH mRNA levels
- BrdU positive (S-phase) cells in liver (FVB mice; post-operative day 2): clear increase in numbers of BrdU positive cells
- increase in median S-phase cells (FVB mice; post-operative day 2, P<0.05): greater than 2 fold
- greater liver weight than control mice (FVB mice; post-operative day 7): approximately 25%
- median survival ([1]; 100,000 donor cells, 5 mg/kg twice daily): approximate doubling of median survival
- survival ([1]; 200,000 donor cells, 30 days of observation): survived at 30 days of observation
- survival ([1]; 500,000 donor cells, day 30): all survived
- percent blood chimerism of CD45.2 marked cells ([2]; donor 5 mg/kg IP daily for 3 doses, weeks 12 and 16): significantly increased
- contribution to B and T cell populations ([2]; week 16): significant increase in contribution to B and T cell populations
- percent of Sca1+/c-Kit+ cells in lineage negative (SKL) cells (C57BL/6J mice): unchanged
- Number of mice surviving (C57BL/6J female mice; 7 Gy, 5 mg/kg IP daily for 7 doses, Day 5): 3
- Number of mice surviving (C57BL/6J female mice; 7 Gy, 5 mg/kg IP daily for 7 doses, Day 6): 3
- Number of mice surviving (C57BL/6J female mice; 7 Gy, 5 mg/kg IP daily for 7 doses, Day 7): 3
- Number of mice surviving (C57BL/6J female mice; 7 Gy, 5 mg/kg IP daily for 7 doses, Day 8): 3
- Number of mice surviving (C57BL/6J female mice; 7 Gy, 5 mg/kg IP daily for 7 doses, Day 9): 3
- Number of mice surviving (C57BL/6J female mice; 7 Gy, 5 mg/kg IP daily for 7 doses, Day 10): 3
- Number of mice surviving (C57BL/6J female mice; 7 Gy, 5 mg/kg IP daily for 7 doses, Day 11): 3
- Number of mice surviving (C57BL/6J female mice; 7 Gy, 5 mg/kg IP daily for 7 doses, Day 12): 3
- Number of mice surviving (C57BL/6J female mice; 7 Gy, 5 mg/kg IP daily for 7 doses, Day 13): 3
- Number of mice surviving (C57BL/6J female mice; 7 Gy, 5 mg/kg IP daily for 7 doses, Day 14): 3
- Number of mice surviving (C57BL/6J female mice; 7 Gy, 5 mg/kg IP daily for 7 doses, Day 15): 3
- Appearance of mice (C57BL/6J female mice; 7 Gy, Day 25, printed 'Looks Healthy' over two lines): Healthy
- Number of mice surviving (C57BL/6J female mice; 9 Gy, 5 mg/kg IP daily for 7 doses, Day 5): 3
- Number of mice surviving (C57BL/6J female mice; 9 Gy, 5 mg/kg IP daily for 7 doses, Day 6): 3
- Number of mice surviving (C57BL/6J female mice; 9 Gy, 5 mg/kg IP daily for 7 doses, Day 7): 3
- Number of mice surviving (C57BL/6J female mice; 9 Gy, 5 mg/kg IP daily for 7 doses, Day 8): 3
- Number of mice surviving (C57BL/6J female mice; 9 Gy, 5 mg/kg IP daily for 7 doses, Day 9): 3
- Number of mice surviving (C57BL/6J female mice; 9 Gy, 5 mg/kg IP daily for 7 doses, Day 10): 3
- Number of mice surviving (C57BL/6J female mice; 9 Gy, 5 mg/kg IP daily for 7 doses, Day 11): 3
- Number of mice surviving (C57BL/6J female mice; 9 Gy, 5 mg/kg IP daily for 7 doses, Day 12): 2
- Number of mice surviving (C57BL/6J female mice; 9 Gy, 5 mg/kg IP daily for 7 doses, Day 13): 2
- Number of mice surviving (C57BL/6J female mice; 9 Gy, 5 mg/kg IP daily for 7 doses, Day 14): 1
- Number of mice surviving (C57BL/6J female mice; 9 Gy, 5 mg/kg IP daily for 7 doses, Day 15): 0
- longer survival than vehicle control (C57BL/6J female mice; 11Gy, 5 mg/kg IP daily for 7 doses): 48 h
- Number of mice surviving (C57BL/6J female mice; 11 Gy, 5 mg/kg IP daily for 7 doses (Table 6), Day 5): 3
- Number of mice surviving (C57BL/6J female mice; 11 Gy, 5 mg/kg IP daily for 7 doses (Table 6), Day 6): 3
- Number of mice surviving (C57BL/6J female mice; 11 Gy, 5 mg/kg IP daily for 7 doses (Table 6), Day 7): 3
- Number of mice surviving (C57BL/6J female mice; 11 Gy, 5 mg/kg IP daily for 7 doses (Table 6), Day 8): 3
- Number of mice surviving (C57BL/6J female mice; 11 Gy, 5 mg/kg IP daily for 7 doses (Table 6), Day 9): 2
- Number of mice surviving (C57BL/6J female mice; 11 Gy, 5 mg/kg IP daily for 7 doses (Table 6), Day 10): 0
- Number of mice surviving (C57BL/6J female mice; 11 Gy, 1 dose/daily for 7 days (Table 7), Day 5): 3
- Number of mice surviving (C57BL/6J female mice; 11 Gy, 1 dose/daily for 7 days (Table 7), Day 6): 3
- Number of mice surviving (C57BL/6J female mice; 11 Gy, 1 dose/daily for 7 days (Table 7), Day 7): 3
- Number of mice surviving (C57BL/6J female mice; 11 Gy, 1 dose/daily for 7 days (Table 7), Day 8): 2
- Number of mice surviving (C57BL/6J female mice; 11 Gy, 1 dose/daily for 7 days (Table 7), Day 9): 1
- Number of mice surviving (C57BL/6J female mice; 11 Gy, 1 dose/daily for 7 days (Table 7), Day 10): 0
- Number of mice surviving (C57BL/6J female mice; 11 Gy, 1 dose/daily, continuous every day, Day 5): 3
- Number of mice surviving (C57BL/6J female mice; 11 Gy, 1 dose/daily, continuous every day, Day 6): 3
- Number of mice surviving (C57BL/6J female mice; 11 Gy, 1 dose/daily, continuous every day, Day 7): 3
- Number of mice surviving (C57BL/6J female mice; 11 Gy, 1 dose/daily, continuous every day, Day 8): 3
- Number of mice surviving (C57BL/6J female mice; 11 Gy, 1 dose/daily, continuous every day, Day 9): 2
- Number of mice surviving (C57BL/6J female mice; 11 Gy, 1 dose/daily, continuous every day, Day 10): 0
